Results: the METLIN SMRT retention time set (Domingo-Almenara et al. 2019)

Experiment: gradient 5% acetonitrile 3 min, to 50% in 2 min, to 85% in 15 min, held 3 min, 100 µL/min
Settings: column: Zorbax Extend-C18 2.1 x 50 mm; eluents: water / acetonitrile, 0.1% formic acid
Summary of the method: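 A Zorbax Extend-C18 column (2.1 × 50 mm, 1.8 μm) run at 100 μL/min with water and acetonitrile, both containing 0.1% formic acid, separated mixtures of ~100 pure standards. The HPLC was coupled to a quadrupole time-of-flight mass spectrometer operated in positive and negative ionization mode, with dead and dwell volumes of 40 μL and 900 μL. Each retention time was taken from a computationally picked adduct peak that was then manually inspected.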

Row | RP-LC retention time [s] | SMILES
1 | 1130 | CCOC(=O)Cn1c(=O)c2cnc(-c3ccc(Cl)cc3)nc2n(C)c1=O
2 | 903 | Cc1nc(-c2ccc(-c3noc(CNC(=O)Cc4ccccc4)n3)cc2)cs1
3 | 659 | COc1ccc(C(=O)N2CCC[C@H]2c2nc(-c3ccccc3)n[nH]2)cn1
4 | 968 | O=C(Cn1nc2c3cc(-c4ccc(F)cc4)nn3ccn2c1=O)N1CCCc2ccccc21
5 | 1020 | Cc1nn(-c2ccccc2)c(C)c1S(=O)(=O)N1CCC(C(=O)N2CCc3ccccc32)CC1
6 | 1250 | Cc1ccc(Sc2nccnc2N2CCCC(C(=O)NC3CCCCCC3)C2)cc1 (centres undefined)
7 | 658 | CCNC(=O)N1CC=C(C(=O)Nc2ccccc2)CC1
8 | 647 | CN1CCN2c3ncccc3Cc3ccccc3[C@@H]2C1
9 | 648 | Cc1cn(C)nc1C(=O)N(CCN1CCOCC1)c1nc2c(C)ccc(C)c2s1
10 | 735 | COc1cc(NC(=O)CCSc2nc3c(=O)n(C)c(=O)n(C)c3n2C)c(OC)cc1Cl
11 | 766 | CCC(=O)N1CCCN(C2=NS(=O)(=O)C(c3ccc(C)c(C)c3)=C2C)CC1
12 | 718 | O=C(NC1CCN(c2cc(-c3cccs3)[nH]n2)C1)c1ccc(F)cc1F (centres undefined)
13 | 940 | COc1cc(OC)cc(C(=O)Nc2nc(-c3ccc4c(c3)NC(=O)C(C)O4)cs2)c1 (centres undefined)
14 | 797 | COc1ccc(-c2cn3ccn(-c4ccc(C)cc4C)c(=O)c3n2)cc1OC
15 | 867 | CCCN1C(=O)c2c(C(=O)NCCCc3ccccc3)ncn2CC1(C)C(=O)NC1CCCC1 (centres undefined)
16 | 653 | O=C([C@@H]1C[C@H](F)CN1C(=O)c1ccsc1)N1CCCCC1
17 | 747 | O=C1CC(C(F)(F)F)c2c(c(C(=O)O)cn2-c2cccc(F)c2)N1 (centres undefined)
18 | 766 | Cc1ccc(NC(=O)Cn2ccc3sccc3c2=O)c(C)c1
19 | 999 | Cc1cn2c(S(=O)(=O)NC3CCCCC3)c(C(C)C)nc2s1
20 | 699 | O=C(C1CCN(S(=O)(=O)c2ccc3nc(-c4ccccc4)[nH]c3c2)CC1)N1CCCC1
21 | 727 | COc1cccc(OCC(O)CN2CCN(c3ccccc3)CC2)c1 (centres undefined)
22 | 841 | Cc1ccc(-c2nc3cnccn3c2Nc2ccc3c(c2)OCCO3)cc1

Row | RP-LC retention time [s] | SMILES
23 | 905 | CCCCn1cnc2c(-c3ccccc3)cn(CC(=O)NC(C)C)c2c1=O
24 | 1190 | Cc1ccc(Cl)cc1N1CCN(C(=O)c2[nH]c(C)c(S(=O)(=O)N3CCC(C)CC3)c2C)CC1
25 | 605 | C=CCn1nc(C)c(-c2cc(C(=O)O)[nH]n2)c1C
26 | 717 | CCOc1cc(Cl)c(S(=O)(=O)Nc2cccnc2)cc1Cl
27 | 564 | CCN(CC)CCCNC(=O)C1CCN(C(=O)c2oc3cc4sc(N(C)C)nc4cc3c2C)CC1
28 | 893 | Cc1cc(C2CCCN2C(=O)Nc2cc(Cl)ccc2C)no1 (centres undefined)
29 | 1090 | COC(=O)c1ccccc1Nc1c(-c2ccccc2)nc2cnc(Br)cn12
30 | 769 | O=C(NCc1ccccc1)C1CC(=O)N(c2ccc3c(c2)CCN3C(=O)C2CCC2)C1 (centres undefined)
31 | 947 | O=C(Cn1nc2nc(N3CCCC3)ccn2c1=O)NCCc1ccccc1
32 | 796 | O=C(NCC1CCCO1)C1CCN(c2nccnc2Sc2ccccc2)CC1 (centres undefined)
33 | 847 | COc1ccc(NC(=O)Cn2nc(N3CCCC3)c3ccccc3c2=O)cc1
34 | 545 | O=C(O)[C@@H]1OCCN(C2CC2)[C@H]1c1ccccc1
35 | 853 | Cc1[nH]c(C(=O)N2CCCC(C(=O)N3CCN(c4ccccc4)CC3)C2)c(C)c1C (centres undefined)
36 | 812 | Cc1ccc(CC(=O)N2CCC3(CC2)NC(=O)c2cccc(Cl)c2N3)cc1
37 | 795 | O=C(NCc1ccco1)C1CN(C(=O)c2ccccc2)CC12CCCCC2 (centres undefined)
38 | 936 | Clc1ccc(C2Cn3nnc(-c4nc(-c5ccccn5)no4)c3CO2)cc1 (centres undefined)
39 | 767 | Cc1ccc(C)c(NC(=O)C2CCN(S(=O)(=O)c3cn(C(C)C)cn3)CC2)c1
40 | 772 | CCN(Cc1ccccc1)Cc1nc(-c2ccc(N3CCOCC3)nc2)no1
41 | 595 | CSc1ccccc1CN1CCC(CNC(=O)C(=O)NCc2cccs2)CC1
42 | 788 | COc1ccc(-n2ccc(=O)c(-c3nc(-c4ccc(OC)c(OC)c4)no3)n2)cc1
43 | 805 | COc1ccccc1NC(=O)C1CCCN1S(=O)(=O)c1cc2c(cc1Cl)NC(=O)CO2 (centres undefined)
44 | 953 | O=C(Cc1ccc(Br)cc1)N1CCN(c2cc(-c3ccc(Cl)cc3)[nH]n2)CC1

Row | RP-LC retention time [s] | SMILES
45 | 567 | O=C(NCCN1CCOCC1)c1ccc2ccnc(N3CCN(C(=O)c4ccco4)CC3)c2c1
46 | 912 | CCOC(=O)c1sc(NC(=O)CN2C(=O)c3ccccc3C2=O)c(SC#N)c1C
47 | 884 | COc1ccc(-c2nnc(-c3ccc(Cl)c(S(=O)(=O)N4CCOCC4)c3)o2)cc1OC
48 | 773 | Cc1c(Cl)cccc1NC(=O)NCC(c1cccnc1)c1cn(C)c2ccccc12 (centres undefined)
49 | 888 | O=C(CSc1nccc(-c2ccc3c(c2)OCO3)n1)c1ccc2c(c1)OCO2
50 | 914 | COc1ccc(OCc2nc(-c3cccc(-c4ccn[nH]4)c3)no2)cc1
51 | 872 | Cc1nc(-c2csc(S(=O)(=O)N3CCCC(C(=O)NCCc4cccs4)C3)c2)no1 (centres undefined)
52 | 754 | Cc1nc(N2CCCC2)c2c(C(=O)NCCCc3ccccc3)c(C)oc2n1
53 | 732 | Cc1ncc([N+](=O)[O-])n1CCOC(=O)c1ccc(F)cc1
54 | 855 | CC1=C(c2ccc(C)cc2)S(=O)(=O)N=C1N1CCCN(C(=O)CC(C)C)CC1
55 | 735 | CCOc1ccc(NC(=O)N2CCC(n3c(-c4ccoc4)nc4cccnc43)C2)cc1 (centres undefined)
56 | 611 | CCN(CCO)CCCOc1ccc2c(Nc3cc(CC(=O)Nc4cccc(F)c4)[nH]n3)ncnc2c1
57 | 584 | CN(C)C1(CC2CC2)CCN(C(=O)c2cccs2)CC1
58 | 648 | O=C(C1CCN(c2cnn(Cc3ccccc3)c(=O)c2)CC1)N1CCSCC1
59 | 1130 | CCOc1ccccc1-c1noc(CN2C(=O)C(C)Oc3ccccc32)n1 (centres undefined)
60 | 767 | O=S(=O)(c1ccc(-c2cnc(C3CCC3)o2)s1)N1CCN(c2ccccn2)CC1
61 | 754 | COc1ccc(C(C)NC(=O)C2CCN(C(=O)c3ncn4c3COC(c3ccccc3)C4)CC2)cc1 (centres undefined)
62 | 1170 | CC1(C)C(=O)N2c3ccccc3C3(CC(N4C(=O)c5ccccc5C4=O)C(=O)O3)C2N1C(=O)OCc1ccccc1 (centres undefined)
63 | 1010 | COc1ccc(NC(=O)Nc2nccn(-c3ccc(C(C)C)cc3)c2=O)cc1OC
64 | 769 | COc1ccc(F)cc1S(=O)(=O)N1C[C@@H](F)C[C@H]1C(=O)N1CCCCC1
65 | 666 | O=C(NC1CCN(C(=O)C2CC2)C1)c1ccc(F)cc1 (centres undefined)
66 | 1210 | Cc1[nH]nc(-c2c(C)sc(C)c2S(=O)(=O)NCCC2=CCCCC2)c1C

Row | RP-LC retention time [s] | SMILES
67 | 813 | O=C(c1ccc(N2CCCCC2)c(S(=O)(=O)N2CCCCC2)c1)N1CCN(c2ccccn2)CC1
68 | 674 | O=C(Nc1cccc2ccc(-n3ccnc3)nc12)C1COc2ccccc2O1 (centres undefined)
69 | 841 | COc1ccc(CNS(=O)(=O)c2cn(C(C)C)c3ncccc23)cc1
70 | 1110 | CCOc1ccccc1-c1noc(Cn2c(=O)n(Cc3cccc(OC)c3)c(=O)c3sccc32)n1
71 | 659 | Cn1cnnc1SCCNC(=O)c1cc(-c2ccc(F)cc2)c[nH]1
72 | 1060 | CCc1sc(NC(=O)C2CC(=O)N(CCc3c[nH]c4ccc(Cl)cc34)C2)nc1-c1ccccc1 (centres undefined)
73 | 901 | O=C(CCCc1ccccc1)Nc1cccn2c(C3CCC3)nnc12
74 | 796 | c1ccc(CNc2nc(NCc3ccccc3)c3ccccc3n2)cc1
75 | 829 | CCOC(=O)CCCn1nc(C)c2c(C)n(-c3ccccc3)nc2c1=O
76 | 602 | O=C(NCCCN1CCOCC1)c1nc2ccccn2c1-c1ccc(F)cc1
77 | 679 | CCc1nnc(NC(=O)C2CCN(C(=O)c3ccc(F)cc3)CC2)s1
78 | 882 | CCC(=O)N1CCc2c([nH]c3ccccc23)C12C(=O)Nc1ccc(Br)cc12 (centres undefined)
79 | 573 | Cc1cc(C)c(C)c(S(=O)(=O)NCC(=O)NCc2ccco2)c1C
80 | 956 | COc1ccc(N2CC(c3noc(-c4ccc(Cl)cc4)n3)CC2=O)cc1OC (centres undefined)
81 | 690 | CC(NC(=O)Cc1nnc(-c2ccc3ncccc3c2)o1)c1ccccc1 (centres undefined)
82 | 625 | CC(=O)NCCc1csc(C2CCN(C(=O)C3CCC3)CC2)n1
83 | 825 | O=C(c1cccs1)N1CCOc2ccc(N3CCCC3)cc2C1
84 | 1110 | CCCn1ccc2oc(C)c(C(=O)NCc3ccccc3Br)c2c1=O
85 | 1120 | O=S(=O)(c1cc(-c2nnc(C3CCC3)o2)co1)N1CCN(c2cccc(Cl)c2)CC1
86 | 904 | CCNS(=O)(=O)c1cccnc1Nc1ccccc1

Row | SMILES | RP-LC retention time [s]
87 | O=C(c1ccc2ccnc(N3CCN(c4ccc(Cl)cc4)CC3)c2c1)N1CCC2(CC1)OCCO2 | 791
88 | CCOc1ccc(CC(=O)N2CCN(Cc3nc(C)cs3)CC2)cc1 | 586
89 | CN(C)CCN(C)CCc1ccc(Cl)c(Cl)c1 | 639
